# Results reported in US9227977B2, “Phosphoinositide 3-kinase inhibitors” (RESPIVERT LTD., priority 2013, dated 2016).
# Read-outs that look alike come from different tables or passages of the source.
# What was measured:
# PI3K β = PI3K β (Homo sapiens (Human), UniProt P42338); test: PI3K enzyme inhibition assay (HTRF TR-FRET); type: biochemical
# Text: The PI3K enzymes catalyse the phosphorylation of phosphatidylinositol 4,5-biphosphate (PIP2) to phosphatidylinositol 3,4,5-triphosphate (PIP3) in the presence of ATP and Mg^2+ ions. The PIP3 product can be detected by displacement of biotin-PIP3 from energy transfer complexes consisting of europium labelled anti-GST monoclonal antibody, a GST-tagged Pleckstrin homology (PH) domain, biotinylated PIP3 and streptavidin-allophycocyanin (APC) by the time-resolved fluorescence resonance energy transfer (TR-FRET) (HTRF®PI3K enzyme assay, Millipore). Excitation, at 330 nm, of europium in the complex results in an energy transfer to the APC and a fluorescent emission at 665 nm although europium itself emits at its characteristic wavelength of 620 nm. The PIP3 product formed by PI3K activity displaces biotin-PIP3 from the complex and results in a loss of energy transfer (decreasing signal).
# The compound to be tested was added, at the desired final concentrations, to a mixture of PIP2 substrate and a recombinant PI3K enzyme (either α, β or δ isoforms, ex Millipore, or γ isoform [p110γ+p101 construct], ex United States Biological, Swampscott, Mass.) and the mixture incubated for 2 hr at RT. Following this incubation period, ATP (10 μM) was added to the enzyme/compound/PIP2 substrate mixture and the resulting mixture was incubated for a further 30 min at RT. A stopping solution containing biotinylated PIP3 and the detection mix containing the GST tagged GRP1 pleckstrin homology (PH) domain and fluorophores were then added and the mixture was incubated at RT for 15-18 hr, prior to detection in a fluorescence microplate reader (Synergy 4, BioTek UK, Bedfordshire, UK).
# The results were calculated according to the formula: APC signal (emission at 665 nm)/europium signal (emission at 620 nm)×10^4. The percentage inhibition of each reaction was calculated relative to DMSO treated control, and the 50% inhibitory concentration (IC50 value) then calculated from the concentration-response curve.
# PI3K γ = PI3K γ (Homo sapiens (Human), UniProt P48736); test: PI3K γ cell based assay: MCP-1-induced Akt phosphorylation in d-U937 cells; conditions: inhibition of induced Akt phosphorylation, MCP-1 stimulus; read-out: REC50 values in d-U937 cells, MCP-1 stimulus
# Method: As a means of assessing the activation of PI3K γ in response to stimuli, the phosphorylation status of the protein, Akt, a downstream product of PI3K γ signalling, was determined following stimulation with MCP-1.
# U937 cells were differentiated to macrophage-type cells by incubation with PMA (100 ng/mL) for 48 to 72 hr. Cells were then pre-incubated with either the test compound or vehicle for 2 hr and were then stimulated briefly with MCP-1 (10 nM, 1 min) and the reaction stopped by replacing the media with 4% formaldehyde solution. […] After washing with buffer (PBS containing 0.1% Triton X-100), cells were incubated with an HRP-conjugated secondary antibody (Dako) and the resultant signal was determined colorimetrically (OD: 450 nm with a reference wavelength of 655 nm) using TMB substrate (substrate reagent pack supplied by R&D Systems, Inc.).
# This reaction was stopped by addition of 1N H2SO4 solution (100 μL). […] After washing with buffer (PBS containing 0.1% Triton X-100) 1% SDS (100 μL) was added to each well and the plates were shaken lightly for 1 hr prior to measuring the absorbance at 595 nm (Varioskan® Flash, Thermo-Fisher Scientific). The measured OD450-655 readings were corrected for cell number by dividing the OD450-655 by the OD595 readings. The ratio of pAkt signal to total Akt signal was used to quantitate the extent of PI3K γ activation. […]
# Chain of PI3K β (P42338 whole entry, species assumed): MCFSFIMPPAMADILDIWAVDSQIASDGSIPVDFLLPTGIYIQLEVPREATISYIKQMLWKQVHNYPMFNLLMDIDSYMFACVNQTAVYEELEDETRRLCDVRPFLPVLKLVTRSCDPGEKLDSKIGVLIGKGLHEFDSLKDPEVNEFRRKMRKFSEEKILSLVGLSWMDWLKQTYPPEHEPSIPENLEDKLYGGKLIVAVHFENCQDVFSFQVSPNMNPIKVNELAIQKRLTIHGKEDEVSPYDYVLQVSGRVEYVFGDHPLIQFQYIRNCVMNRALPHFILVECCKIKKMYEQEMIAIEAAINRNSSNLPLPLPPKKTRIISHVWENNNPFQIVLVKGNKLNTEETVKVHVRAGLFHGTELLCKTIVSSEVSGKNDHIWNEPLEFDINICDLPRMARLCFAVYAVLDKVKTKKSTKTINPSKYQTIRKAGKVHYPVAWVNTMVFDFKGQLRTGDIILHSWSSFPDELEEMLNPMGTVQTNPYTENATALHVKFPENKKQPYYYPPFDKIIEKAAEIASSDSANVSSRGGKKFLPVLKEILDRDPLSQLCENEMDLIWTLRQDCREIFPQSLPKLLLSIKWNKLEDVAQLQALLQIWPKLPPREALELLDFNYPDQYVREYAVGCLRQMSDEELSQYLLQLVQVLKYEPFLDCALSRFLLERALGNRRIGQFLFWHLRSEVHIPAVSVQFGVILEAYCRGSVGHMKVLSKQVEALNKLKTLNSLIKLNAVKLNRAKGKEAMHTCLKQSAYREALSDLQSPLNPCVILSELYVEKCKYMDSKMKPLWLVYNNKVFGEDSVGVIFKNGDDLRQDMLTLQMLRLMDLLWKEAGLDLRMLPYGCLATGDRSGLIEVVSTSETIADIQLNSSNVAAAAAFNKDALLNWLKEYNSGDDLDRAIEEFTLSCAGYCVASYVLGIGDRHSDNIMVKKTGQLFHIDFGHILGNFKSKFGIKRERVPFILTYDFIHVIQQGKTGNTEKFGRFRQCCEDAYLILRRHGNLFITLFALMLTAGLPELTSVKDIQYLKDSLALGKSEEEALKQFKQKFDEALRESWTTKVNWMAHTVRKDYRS
# Chain of PI3K β (P27986 whole entry partner, species assumed): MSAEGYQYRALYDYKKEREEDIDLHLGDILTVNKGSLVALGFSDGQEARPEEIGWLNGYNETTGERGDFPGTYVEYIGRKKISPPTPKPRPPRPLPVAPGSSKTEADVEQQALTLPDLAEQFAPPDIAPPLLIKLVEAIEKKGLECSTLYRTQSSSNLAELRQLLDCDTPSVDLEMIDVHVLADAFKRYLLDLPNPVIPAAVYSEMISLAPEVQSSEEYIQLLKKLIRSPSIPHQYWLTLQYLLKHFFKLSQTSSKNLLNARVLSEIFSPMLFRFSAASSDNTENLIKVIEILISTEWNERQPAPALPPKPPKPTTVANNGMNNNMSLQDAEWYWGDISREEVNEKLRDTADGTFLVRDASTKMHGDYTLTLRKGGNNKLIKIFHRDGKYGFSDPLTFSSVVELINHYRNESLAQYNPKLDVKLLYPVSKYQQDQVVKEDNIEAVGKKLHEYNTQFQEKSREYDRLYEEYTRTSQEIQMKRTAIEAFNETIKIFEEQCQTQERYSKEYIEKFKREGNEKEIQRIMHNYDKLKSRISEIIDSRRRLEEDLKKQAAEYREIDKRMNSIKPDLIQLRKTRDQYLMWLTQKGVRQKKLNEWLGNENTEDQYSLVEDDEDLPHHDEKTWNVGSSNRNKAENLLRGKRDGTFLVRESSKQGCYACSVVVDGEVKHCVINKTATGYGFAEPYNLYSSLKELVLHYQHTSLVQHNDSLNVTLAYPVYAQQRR
# Chain of PI3K γ (P48736 whole entry): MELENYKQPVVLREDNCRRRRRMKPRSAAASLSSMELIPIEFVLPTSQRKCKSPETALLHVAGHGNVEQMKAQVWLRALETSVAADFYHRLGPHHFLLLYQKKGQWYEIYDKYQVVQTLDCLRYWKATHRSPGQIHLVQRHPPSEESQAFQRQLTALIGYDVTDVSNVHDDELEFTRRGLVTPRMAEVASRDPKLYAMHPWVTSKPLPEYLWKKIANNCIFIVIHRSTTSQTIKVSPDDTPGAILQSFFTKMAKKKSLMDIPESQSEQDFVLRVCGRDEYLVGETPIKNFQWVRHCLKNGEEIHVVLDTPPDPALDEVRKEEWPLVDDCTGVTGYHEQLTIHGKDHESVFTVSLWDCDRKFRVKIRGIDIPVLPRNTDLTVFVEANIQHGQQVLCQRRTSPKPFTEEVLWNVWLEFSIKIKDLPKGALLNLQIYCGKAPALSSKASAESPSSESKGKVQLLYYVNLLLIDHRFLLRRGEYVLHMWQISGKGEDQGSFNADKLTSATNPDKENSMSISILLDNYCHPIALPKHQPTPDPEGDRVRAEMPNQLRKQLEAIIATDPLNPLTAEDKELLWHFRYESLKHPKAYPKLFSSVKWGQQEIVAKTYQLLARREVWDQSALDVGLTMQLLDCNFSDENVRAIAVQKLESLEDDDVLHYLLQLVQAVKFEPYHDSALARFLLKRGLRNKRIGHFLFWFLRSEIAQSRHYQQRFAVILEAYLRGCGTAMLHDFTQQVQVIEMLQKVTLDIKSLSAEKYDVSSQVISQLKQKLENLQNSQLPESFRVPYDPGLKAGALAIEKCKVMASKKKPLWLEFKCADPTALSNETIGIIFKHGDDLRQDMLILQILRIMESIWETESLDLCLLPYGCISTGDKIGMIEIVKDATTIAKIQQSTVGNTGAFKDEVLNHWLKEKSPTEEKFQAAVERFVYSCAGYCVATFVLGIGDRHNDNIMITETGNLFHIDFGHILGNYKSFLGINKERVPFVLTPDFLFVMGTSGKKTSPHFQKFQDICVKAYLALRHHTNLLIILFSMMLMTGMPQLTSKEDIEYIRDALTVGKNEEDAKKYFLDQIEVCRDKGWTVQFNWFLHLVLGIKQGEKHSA
smiles,measurement,setting,value
"COCCOCCOCC#Cc1cccc2nc(Cn3nc(-c4cc(O)cc(F)c4)c4c(N)ncnc43)n(Cc3ccccc3C(F)(F)F)c(=O)c12 [Compound (I), 2-((4-Amino-3-(3-fluoro-5-hydroxyphenyl)-1H-pyrazolo[3,4-d]pyrimidin-1-yl)methyl)-5-(3-(2-(2-methoxyethoxy)ethoxy)prop-1-yn-1-yl)-3-(2-(trifluoromethyl)benzyl)quinazolin-4(3H)-one]",inhibitory activity versus PI3K β in enzyme assays (in words),PI3K β,low inhibitory activity
same,IC50,"PI3K β; read-out: IC50 Values for PI3K inhibition at isozyme indicated, PI3K β",4.89 µM
same,IC50,"PI3K β; read-out: PI3 Kinase Inhibition IC50 value at state isozyme, β",4.89 µM
same,EC50,PI3K γ,0.0165 µM
